Results: ChEMBL document CHEMBL4428061, “Effects of 5-O-Ribosylation of Aminoglycosides on Antimicrobial Activity and Selective Perturbation of Bacterial Translation” (J Med Chem, 2016)
≈ marks a conversion by molar mass, not a printed value.

Experiments:
[1] = system: Klebsiella pneumoniae; test: Antimicrobial activity against Klebsiella pneumoniae ATCC 13883 measured after 24 hrs by double-dilution method; format: functional; conditions: ATCC 13883, 24 h
[2] = Inhibition of cytosolic eukaryotic translation in rabbit reticulocyte S30 extract measured after 60 mins by coupled transcription/translation-based luciferase reporter gene assay; parameters: species or system Oryctolagus cuniculus
[3] = system: Burkholderia cepacia; test: Antimicrobial activity against aminoglycoside-resistant Burkholderia cepacia ATCC 25416 measured after 24 hrs by double-dilution method; format: functional; conditions: ATCC 25416, 24 h
[4] = system: Pseudomonas aeruginosa; test: Antimicrobial activity against Pseudomonas aeruginosa ATCC 27853 measured after 24 hrs by double-dilution method; format: functional; conditions: ATCC 27853, 24 h
[5] = system: Escherichia coli; test: Antimicrobial activity against Escherichia coli ATCC 25922 measured after 24 hrs by double-dilution method; format: functional; conditions: ATCC 25922, 24 h
[6] = system: Haemophilus influenzae; test: Antimicrobial activity against Haemophilus influenzae ATCC 10211 measured after 24 hrs by double-dilution method; format: functional; conditions: ATCC 10211, 24 h
[7] = system: Acinetobacter baumannii; test: Antimicrobial activity against Acinetobacter baumannii ATCC 19606 measured after 24 hrs by double-dilution method; format: functional; conditions: ATCC 19606 = CIP 70.34 = JCM 6841, 24 h
[8] = system: Escherichia coli; test: Antimicrobial activity against aminoglycoside-resistant Escherichia coli ATCC BAA-2452 measured after 24 hrs by double-dilution method; format: functional; conditions: ATCC BAA-2452, 24 h
[9] = system: Klebsiella pneumoniae; test: Antimicrobial activity against aminoglycoside-resistant Klebsiella pneumoniae ATCC BAA-2470 measured after 24 hrs by double-dilution method; format: functional; conditions: ATCC BAA-2470, 24 h
[10] = system: Ribosomal RNA A-site; test: Binding affinity to 16S rRNA A-site in Escherichia coli S30 extract assessed as inhibition of translation measured after 30 mins by coupled transcription/translation-based luciferase reporter gene assay; format: nucleic-acid assay
[11] = system: Klebsiella pneumoniae; test: Antimicrobial activity against Klebsiella pneumoniae ATCC 10031 measured after 24 hrs by double-dilution method; format: functional; conditions: ATCC 10031, 24 h
[12] = system: Pseudomonas aeruginosa; test: Antimicrobial activity against Pseudomonas aeruginosa ATCC 47085 measured after 24 hrs by double-dilution method; format: functional; conditions: ATCC 47085, 24 h
[13] = system: Haemophilus influenzae; test: Antimicrobial activity against Haemophilus influenzae ATCC 49247 measured after 24 hrs by double-dilution method; format: functional; conditions: ATCC 49247, 24 h
[14] = system: cytosolic eukaryotic translation versus 16S rRNA A-site; test: Selectivity ratio, ratio of IC50 for cytosolic eukaryotic translation in rabbit reticulocyte S30 extract to IC50 for 16S rRNA A-site in Escherichia coli S30 extract; format: toxicity; conditions: read-out: Ratio IC50
[15] = Acute toxicity in iv dosed rat; format: organism-based; conditions: in vivo

Row | Structure (SMILES) | MIC [1] | IC50 [2] | MIC [3] | MIC [4] | MIC [5] | MIC [6] | MIC [7] | MIC [8] | MIC [9] | IC50 [10] | MIC [11] | MIC [12] | MIC [13] | selectivity ratio [14] | LD50 [15]
1 | NC[C@H]1O[C@H](O[C@H]2[C@H](O[C@@H]3O[C@H](CO)[C@@H](O)[C@H]3O)[C@@H](O[C@H]3O[C@H](CO)[C@@H](O)[C@H](N)[C@H]3O)[C@H](N)C[C@@H]2N)[C@H](N)C[C@@H]1O | 2 µg/mL (≈ 3.34 µM) | 49.1 µM | > 32 µg/mL | 4 µg/mL (≈ 6.67 µM) | 4 µg/mL (≈ 6.67 µM) | 8 µg/mL (≈ 13.3 µM) | 32 µg/mL (≈ 53.4 µM) | > 32 µg/mL | > 32 µg/mL | 0.08 µM | 2 µg/mL (≈ 3.34 µM) | 2 µg/mL (≈ 3.34 µM) | 8 µg/mL (≈ 13.3 µM) | 614 | –
2 | NC[C@H]1O[C@H](O[C@H]2[C@H](O[C@@H]3O[C@H](CO)[C@@H](O)[C@H]3O)[C@@H](O[C@H]3O[C@H](CO)[C@@H](O)[C@H](N)[C@H]3O)[C@H](N)C[C@@H]2N)[C@H](N)[C@@H](O)[C@@H]1O | 4 µg/mL (≈ 6.5 µM) | 43.8 µM | > 32 µg/mL | > 32 µg/mL | 4 µg/mL (≈ 6.5 µM) | 8 µg/mL (≈ 13 µM) | > 32 µg/mL | > 32 µg/mL | > 32 µg/mL | 0.03 µM | 4 µg/mL (≈ 6.5 µM) | > 32 µg/mL | 8 µg/mL (≈ 13 µM) | 1460 | –
3 | NCC[C@H](O)C(=O)N[C@@H]1C[C@H](N)[C@@H](O[C@H]2O[C@H](CN)[C@@H](O)[C@H](O)[C@H]2O)[C@H](O[C@@H]2O[C@H](CO)[C@@H](O)[C@H]2O)[C@H]1O[C@H]1O[C@H](CO)[C@@H](O)[C@H](N)[C@H]1O | > 32 µg/mL | 193 µM | > 32 µg/mL | > 32 µg/mL | > 32 µg/mL | > 32 µg/mL | > 32 µg/mL | > 32 µg/mL | > 32 µg/mL | 6.44 µM | > 32 µg/mL | > 32 µg/mL | > 32 µg/mL | 30 | –
4 | NC[C@H]1O[C@H](O[C@H]2[C@H](O[C@@H]3O[C@H](CO)[C@@H](O)[C@H]3O)[C@@H](O)[C@H](N)C[C@@H]2N)[C@H](N)C[C@@H]1O | 8 µg/mL (≈ 18.2 µM) | 135 µM | > 32 µg/mL | 4 µg/mL (≈ 9.12 µM) | 2 µg/mL (≈ 4.56 µM) | 4 µg/mL (≈ 9.12 µM) | 32 µg/mL (≈ 73 µM) | > 32 µg/mL | > 32 µg/mL | 0.11 µM | 4 µg/mL (≈ 9.12 µM) | 4 µg/mL (≈ 9.12 µM) | 4 µg/mL (≈ 9.12 µM) | 1230 | –
5 | NC[C@H]1O[C@H](O[C@H]2[C@H](O)[C@@H](O)[C@H](N)C[C@@H]2N)[C@H](N)C[C@@H]1O | > 32 µg/mL | 121 µM | > 32 µg/mL | > 32 µg/mL | 16 µg/mL (≈ 52.2 µM) | > 32 µg/mL | > 32 µg/mL | > 32 µg/mL | > 32 µg/mL | 0.43 µM | > 32 µg/mL | > 32 µg/mL | > 32 µg/mL | 282 | –
6 | NCC[C@H](O)C(=O)N[C@@H]1C[C@H](N)[C@@H](O[C@H]2O[C@H](CN)[C@@H](O)[C@H](O)[C@H]2O)[C@H](O)[C@H]1O[C@H]1O[C@H](CO)[C@@H](O)[C@H](N)[C@H]1O [AMIKACIN] | 4 µg/mL (≈ 6.83 µM) | 64.6 µM | > 32 µg/mL | 8 µg/mL (≈ 13.7 µM) | 2 µg/mL (≈ 3.42 µM) | 32 µg/mL (≈ 54.6 µM) | 4 µg/mL (≈ 6.83 µM) | > 32 µg/mL | > 32 µg/mL | 0.07 µM | 4 µg/mL (≈ 6.83 µM) | 4 µg/mL (≈ 6.83 µM) | 32 µg/mL (≈ 54.6 µM) | 923 | –
7 | NC[C@H]1O[C@H](O[C@H]2[C@H](O)[C@@H](O[C@H]3O[C@H](CO)[C@@H](O)[C@H](N)[C@H]3O)[C@H](N)C[C@@H]2N)[C@H](N)[C@@H](O)[C@@H]1O [BEKANAMYCIN] | 1 µg/mL (≈ 2.07 µM) | 28.9 µM | > 32 µg/mL | > 32 µg/mL | 4 µg/mL (≈ 8.27 µM) | 2 µg/mL (≈ 4.14 µM) | 4 µg/mL (≈ 8.27 µM) | > 32 µg/mL | > 32 µg/mL | 0.04 µM | 1 µg/mL (≈ 2.07 µM) | > 32 µg/mL | 4 µg/mL (≈ 8.27 µM) | 722 | –
8 | NC[C@H]1O[C@H](O[C@H]2[C@H](O)[C@@H](O[C@H]3O[C@H](CO)[C@@H](O)[C@H](N)[C@H]3O)[C@H](N)C[C@@H]2N)[C@H](O)[C@@H](O)[C@@H]1O [KANAMYCIN] | 4 µg/mL (≈ 8.26 µM) | 111 µM | > 32 µg/mL | > 32 µg/mL | 4 µg/mL (≈ 8.26 µM) | 8 µg/mL (≈ 16.5 µM) | 8 µg/mL (≈ 16.5 µM) | > 32 µg/mL | > 32 µg/mL | 0.1 µM | 4 µg/mL (≈ 8.26 µM) | > 32 µg/mL | 8 µg/mL (≈ 16.5 µM) | 1110 | –
9 | NC[C@H]1O[C@H](O[C@H]2[C@H](O)[C@@H](O)[C@H](N)C[C@@H]2N)[C@H](N)[C@@H](O)[C@@H]1O [NEAMINE] | 16 µg/mL (≈ 49.6 µM) | 99 µM | > 32 µg/mL | > 32 µg/mL | 16 µg/mL (≈ 49.6 µM) | 32 µg/mL (≈ 99.3 µM) | > 32 µg/mL | > 32 µg/mL | > 32 µg/mL | 0.46 µM | 16 µg/mL (≈ 49.6 µM) | > 32 µg/mL | 32 µg/mL (≈ 99.3 µM) | 215 | 121 to 129 mg/kg
10 | NC[C@H]1O[C@H](O[C@H]2[C@H](O[C@@H]3O[C@H](CO)[C@@H](O)[C@H]3O)[C@@H](O)[C@H](N)C[C@@H]2N)[C@H](N)[C@@H](O)[C@@H]1O [RIBOSTAMYCIN] | 8 µg/mL (≈ 17.6 µM) | 116 µM | > 32 µg/mL | > 32 µg/mL | 4 µg/mL (≈ 8.8 µM) | 8 µg/mL (≈ 17.6 µM) | 16 µg/mL (≈ 35.2 µM) | > 32 µg/mL | > 32 µg/mL | 0.09 µM | 8 µg/mL (≈ 17.6 µM) | > 32 µg/mL | 8 µg/mL (≈ 17.6 µM) | 1290 | –
11 | NC[C@H]1O[C@H](O[C@H]2[C@H](O)[C@@H](O[C@H]3O[C@H](CO)[C@@H](O)[C@H](N)[C@H]3O)[C@H](N)C[C@@H]2N)[C@H](N)C[C@@H]1O [TOBRAMYCIN] | 1 µg/mL (≈ 2.14 µM) | 42.3 µM | > 32 µg/mL | 1 µg/mL (≈ 2.14 µM) | 2 µg/mL (≈ 4.28 µM) | 4 µg/mL (≈ 8.56 µM) | 2 µg/mL (≈ 4.28 µM) | > 32 µg/mL | > 32 µg/mL | 0.07 µM | 1 µg/mL (≈ 2.14 µM) | 1 µg/mL (≈ 2.14 µM) | 4 µg/mL (≈ 8.56 µM) | 605 | –
